According to patent publication US11506670B2, “Method of genome-wide direct identification of electrophile-sensing targets” (Cornell University, priority 2018, dated 2022):

Legend:
[1] = biological target: T1, Ube2N (Homo sapiens, UniProt P61088); assay: Biotin azide/streptavidin pulldown of HNEylated proteins from mammalian lysate; format: cell-based; conditions: HEK293T, Halo-(FLAG)-Ube2V2 and HA-Ube2N
T1 construct: expressed in transfected cells; host or cells: HEK 293T
Experimental: HEK 293T cells were seeded in 60 cm^2 plate. After the cells reached 60% confluence (˜18-24 h), the old media were replaced with fresh 8 mL complete media. Cells were transfected with 7.5 μg of the designated plasmids encoding the HaloTag fusion gene and 30 μL PEI (1 mg/mL) in 600 μL in Opti-MEM media for 24-36 h after which the cells were treated with 25 μM Ht-PreHNE or without alkyne (control) for 2.5 h. Rinsing and light shining protocol were as described above. Cells were harvested, washed twice with chilled 1× DPBS and flash frozen.
Mammalian cell lysis was performed in 200 μL of lysis buffer containing in final concentrations 50 mM HEPES (pH 7.6), 150 mM NaCl, 1% Nonidet P-40 and 1× Roche cOmplete, mini, EDTA-free protease inhibitor cocktail by rapid freeze-thaw (×3). Lysate was clarified by centrifugation at 18,000×g for 30 min at 4° C.
Total protein concentration from either mammalian cell lysate or zebrafish lysate was determined using Bradford assay with BSA as standard. The lysate was subsequently diluted to 2 mg/mL with a buffer made up of 50 mM HEPES (pH 7.6) and 0.3 mM TCEP, and subjected to Click reaction with biotin azide for 30 min at 37° C. The final concentrations of each components were: 1% SDS, 5% t-BuOH, 200 μM Biotin azide, 2 mM TCEP, 0.9 mM CuSO4 and 0.1 mM Cu(TBTA). The lysate proteins were precipitated by adding 4 volumes of EtOH pre-chilled at −20° C. […]

[2] = test system: DNA synthesis in HEK293T cells; assay: EdU/BrdU dual-pulse DNA-replication efficiency assay; format: cell-based, human; conditions: wt-Ube2V2 cells, post T-REX
Experimental: 4.8×10^5 cells were plated in glass-bottomed dishes (In Vitro Scientific) and allowed to grow for 24 h. Cells were transfected with the indicated plasmid and allowed to grow for another 24 h. Cells were then treated with 3 μM Ht-PreHNE no alkyne for 2.5 h followed by two rinses with serum-free medium. After this time, 20 μM EdU (final concentration) was added into cell culture media for 30 min before the 3rd rinse. The cells were rinsed another two times before light shining. 2.5 h post light irradiation, cells were treated with 50 μM BrdU for 30 min at 37° C. Then the cells were fixed with −20° C. pre-chilled MeOH for 20 min and then carried on to immunofluorescence assay as described elsewhere.
Whether DNA-synthesis stall (that occurs in response to many DNA damage events) accompanies C69-specific Ube2V2-HNEylation was investigated. A dual-pulse assay was used, which involves sequential, timed pulsing with two orthogonal DNA-labeling agents (EdU, followed by BrdU) that can be detected by fluorescence imaging (FIG. 13D). This assay is very accurate, because DNA-synthesis is measured over a defined time range, allowing a good estimate of synthesis-rate to be determined.

T1 sequence (P61088 whole entry): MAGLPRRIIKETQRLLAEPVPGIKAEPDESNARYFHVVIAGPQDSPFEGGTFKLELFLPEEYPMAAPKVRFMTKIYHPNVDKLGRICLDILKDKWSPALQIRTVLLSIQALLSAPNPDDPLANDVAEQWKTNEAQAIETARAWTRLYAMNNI
T1 sequence (Q15819 whole entry partner): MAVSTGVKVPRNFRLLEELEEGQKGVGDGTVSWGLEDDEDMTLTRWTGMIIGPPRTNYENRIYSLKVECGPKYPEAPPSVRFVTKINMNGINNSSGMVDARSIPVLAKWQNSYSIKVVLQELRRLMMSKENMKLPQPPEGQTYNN

Q: `CCCCCC(O)/C=C/C=O` (centres unmarked) [HNE, 4-hydroxynonenal] was tested. Which “HNEylation of Ube2N during T-REX delivery to Ube2V2 (affinity capture)” value [1] did it give?
A: The value was “no detectable HNEylation of Ube2N”.

Q: What about the DNA-synthesis stall [2] of the same molecule?
A: Its DNA-synthesis stall is “the extent of DNA-synthesis stall was similar to that observed under mitomycin-C treatment”.
